Patent US4263294A, “Maytansinoids, pharmaceutical compositions thereof and method of use thereof” (Takeda Chemical Industries, Ltd., priority 1978, dated 1981)
≈ marks a conversion by molar mass, not a printed value.

Legend:
[1] = test system: melanoma B-16 tumor cells; experiment: Antitumor activity, life span prolongation in mice with intraperitoneally transplanted melanoma B-16 (NCI protocol 1,300); type: in vivo; conditions: intraperitoneally once daily for 9 consecutive days
Experimental: Therapeutic tests were carried out in mice according to NCI-protocol 1,300, Cancer Chemother, Reports, Part 3, 1972, Vol. 3, No. 2, in which melanoma B-16 tumor cells had been intraperitoneally transplanted, compound (I) being administered intraperitoneally once daily for 9 consecutive days.

Tetrahymena pyriformis W = experiment: Antiprotozoal activity, growth inhibition by serial dilution method; type: cell-based; conditions: 28° C., 44 to 48 hours, pH 7.0, serial dilution method
Experimental: Antiprotozoal activity of compound (I) was assayed with Tetrahymena pyriformis W as the test organism and a medium composed of 20 g tryptose-peptone (Difco Co.), 1 g yeast extract, 2 g glucose, 1000 ml distilled water, 10 ml 1 M phosphate buffer (pH 7.0) as the assay medium. The microorganism was incubated at 28° C. for 44 to 48 hours and the growth inhibitory activity of compound (I) was assayed by the serial dilution method.

Compound	Antitumor activities B-16 (T/C%) ([1]; 100 μg/kg) [%]	Antitumor activities B-16 (T/C%) ([1]; 200 μg/kg) [%]	Antitumor activities B-16 (T/C%) ([1]; 400 μg/kg) [%]	MIC (Tetrahymena pyriformis W) [µg/mL]	Antitumor activities B-16 (T/C%) ([1]; 50 μg/kg) [%]
COc1cc2cc(c1Cl)N(C)C(=O)CC(OC(=O)Nc1ccccc1)C1(C)OC1C(C)C1CC(O)(NC(=O)O1)C(OC)C=CC=C(C)C2 (centres unmarked) [Maytansinol 3-(N-phenyl)carbamate, maytansinol 3-N-phenylcarbamate]	123	151	161	≥ 8	
COc1cc2cc(c1Cl)N(C)C(=O)CC(OC(=O)OC(C)C)C1(C)OC1C(C)C1CC(O)(NC(=O)O1)C(OC)C=CC=C(C)C2 (centres unmarked) [Maytansinol 3-isopropylcarbonate, maytansinol 3-isopropylcarbonate]	171	171		4 to 8 (≈ 6.14 to 12.3 µM)	150
